The text below walks through data of patent US20260274829A1, “NEW E3 UBIQUITIN LIGASE LIGAND, PROTEIN DEGRADATION AGENT AND USE THEREOF” (GLUETACS THERAPEUTICS (SHANGHAI) CO., LTD., priority 2023, published 2026).

Some results are limits rather than exact numbers.

The target of the experiment is T1, human Cereblon WT GST-tagged protein (Homo sapiens, UniProt Q96SW2).
T1 construct: purchased CISBIO 64BDCRBNPEH
T1 sequence (Q96SW2 whole entry): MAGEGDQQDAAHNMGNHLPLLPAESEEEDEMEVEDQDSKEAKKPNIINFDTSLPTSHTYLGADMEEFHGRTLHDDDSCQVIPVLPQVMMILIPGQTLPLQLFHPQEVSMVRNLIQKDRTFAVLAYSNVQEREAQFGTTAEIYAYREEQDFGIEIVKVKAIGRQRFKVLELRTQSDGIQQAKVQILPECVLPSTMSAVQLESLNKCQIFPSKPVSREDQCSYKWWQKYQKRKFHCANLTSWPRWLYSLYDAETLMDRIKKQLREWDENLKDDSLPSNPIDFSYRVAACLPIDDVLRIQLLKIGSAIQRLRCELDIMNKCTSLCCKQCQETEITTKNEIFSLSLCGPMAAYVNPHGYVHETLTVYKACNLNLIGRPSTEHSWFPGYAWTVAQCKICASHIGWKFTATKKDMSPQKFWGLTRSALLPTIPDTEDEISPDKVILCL
Briefly: CRBN binding, HTRF CEREBLON BINDING kit. Particulars: CRBN binding, HTRF CEREBLON BINDING kit. As to the method:
The CEREBLON BINDING kits (specification: 10,000 tests; product number: Catalog #64BDCRBNPEH; CISBIO company) was used to determine the CRBN binding ability of the compounds to be tested through a HTRF method (homogeneous time-resolved fluorescence). The specific methods are as follows: • 1. […] Then, 2.5 μL of human Cereblon WT GST-tagged protein solution was added to each well. Finally, 5 μL of the thoroughly mixed Thalidomide-Re reagent and GST Eu antibody working solution were added to each of the aforementioned wells. […] The blank control wells were sequentially added with 2.5 μL of diluent #9 (1×) solution, 2.5 μL of binding buffer, and 5 μL of thoroughly mixed Thalidomide-Re reagent and GST Eu antibody working solution. • 4. After sealing and incubating the solutions in the aforementioned wells at room temperature for 3 hours, the absorbance values at emission wavelengths of 620 nm and 665 nm were detected by the HTRF method using a Spark microplate reader (V3.1 SP1).
The corresponding CRBN binding inhibition rate was calculated using the following method:
[formula] [formula] [formula] • Note: OD 665 nmcompound is the absorbance value of each well of the compounds to be tested of the present disclosure at an emission wavelength of 665 nm. • OD 620 nmcompound is the absorbance value of each well of the compounds to be tested of the present disclosure at an emission wavelength of 620 nm. • OD 665 nmcontrol is the absorbance value of the blank control well at an emission wavelength of 665 nm. • OD 620 nmcontrol is the absorbance value of the blank control well at an emission wavelength of 620 nm. • OD 665 nmStd0 is the absorbance value of the solvent control well at an emission wavelength of 665 nm. • OD 620 nmStd0 is the absorbance value of the solvent control well at an emission wavelength of 620 nm.
For `CNC(=O)c1ccc(N2C(=S)N(c3ccc(C#N)c(C(F)(F)F)c3)C(=O)C2(C)C)cc1F` [Enzalutamide], the IC50 is > 10 µM. Molecule `COc1cc(N2CCC(N3CCN(Cc4cccc(N5CCC(=O)NC5=O)c4)CC3)CC2)c(C)cc1Nc1ncc(Br)c(Nc2ccc3nccnc3c2P(C)(C)=O)n1` [GT-04260, 1-(3-((4-(1-(4-((5-bromo-4-((5-(dimethylphosphoryl)quinoxalin-6-yl)amino)pyrimidin-2-yl)amino)-5-methoxy-2-methylphenyl)piperidin-4-yl)piperazin-1-yl)methyl)phenyl)dihydropyrimidine-2,4(1H,3H)-dione] gave an IC50 of 1 to 1.9 µM. For the molecule `COc1cc2nn(C3CCN(Cc4ccc(C5CCC(=O)NC5=O)cc4)CC3)cc2cc1NC(=O)c1cccc(C(F)(F)F)c1` (centres unmarked) [GT-04747, N-(2-(1-(4-(2,6-dioxopiperidin-3-yl)benzyl)piperidin-4-yl)-6-methoxy-2H-indazol-5-yl)-3-(trifluoromethyl)benzamide], the IC50 lay within 0.5 to 1 µM. The same measure for `COc1cc2nn(C3CCN(Cc4ccc(C5CCC(=O)NC5=O)c(F)c4)CC3)cc2cc1NC(=O)c1cccc(C(F)(F)F)c1` (centres unmarked) [GT-04748, N-(2-(1-(4-(2,6-dioxopiperidin-3-yl)-3-fluorobenzyl)piperidin-4-yl)-6-methoxy-2H-indazol-5-yl)-3-(trifluoromethyl)benzamide]: 1 to 1.9 µM. Consider `COc1cc2nn(C3CCN(Cc4cccc(NC5CCC(=O)NC5=O)c4)CC3)cc2cc1NC(=O)c1cccc(C(F)(F)F)c1` (centres unmarked) [GT-04749, N-(2-(1-(3-((2,6-dioxopiperidin-3-yl)amino)benzyl)piperidin-4-yl)-6-methoxy-2H-indazol-5-yl)-3-(trifluoromethyl)benzamide], for which the half-maximal inhibitory concentration (IC50) was in the range of 1 to 1.9 µM. Molecule `COc1cc2nn(C3CCN(Cc4cccc(N5CCC(=O)NC5=O)c4)CC3)cc2cc1NC(=O)c1cccc(C(F)(F)F)c1` [GT-04750, N-(2-(1-(3-(2,4-dioxotetrahydropyrimidin-1(2H)-yl)benzyl)piperidin-4-yl)-6-methoxy-2H-indazol-5-yl)-3-(trifluoromethyl)benzamide] yielded an IC50 of 1 to 1.9 µM. Under `COc1cc2nn(C3CCN(Cc4ccc(N5CCC(=O)NC5=O)c(F)c4)CC3)cc2cc1NC(=O)c1cccc(C(F)(F)F)c1` [GT-04751, N-(2-(1-(4-(2,4-dioxotetrahydropyrimidin-1(2H)-yl)-3-fluorobenzyl)piperidin-4-yl)-6-methoxy-2H-indazol-5-yl)-3-(trifluoromethyl)benzamide] stands 1 to 1.9 µM; under `COc1cc2nn(C3CCN(Cc4ccc(N5CCC(=O)NC5=O)cc4)CC3)cc2cc1NC(=O)c1cccc(C(F)(F)F)c1` [GT-04752, N-(2-(1-(4-(2,4-dioxotetrahydropyrimidin-1(2H)-yl)benzyl)piperidin-4-yl)-6-methoxy-2H-indazol-5-yl)-3-(trifluoromethyl)benzamide], 1 to 1.9 µM. Turning to `COc1cc2nn(C3CCN(Cc4ccc(N5CCC(=O)NC5=O)cc4F)CC3)cc2cc1NC(=O)c1cccc(C(F)(F)F)c1` [GT-04753, N-(2-(1-(4-(2,4-dioxotetrahydropyrimidin-1(2H)-yl)-2-fluorobenzyl)piperidin-4-yl)-6-methoxy-2H-indazol-5-yl)-3-(trifluoromethyl)benzamide], the IC50 fell in the range of 1 to 1.9 µM. The molecule `COc1cc2nn(C3CCN(Cc4ccc(C5CCC(=O)NC5=O)cc4)CC3)cc2cc1NC(=O)c1cccc(C(F)(F)F)n1` (centres unmarked) [GT-04761, N-(2-(1-(4-(2,6-dioxopiperidin-3-yl)benzyl)piperidin-4-yl)-6-methoxy-2H-indazol-5-yl)-6-(trifluoromethyl)picolinamide] displayed an IC50 of 0.5 to 1 µM. `COc1cc2nn(C3CCN(Cc4ccc(C5CCC(=O)NC5=O)c(F)c4)CC3)cc2cc1NC(=O)c1cccc(C(F)(F)F)n1` (centres unmarked) [GT-04762, N-(2-(1-(4-(2,6-dioxopiperidin-3-yl)-3-fluorobenzyl)piperidin-4-yl)-6-methoxy-2H-indazol-5-yl)-6-(trifluoromethyl)picolinamide] came in with an IC50 of 1 to 1.9 µM.

The IC50 is the concentration that gives 50% inhibition. A higher IC50 goes with weaker potency in that assay.
